The record followed here is US8912180B2, “Heterocyclic compound” (Astellas Pharma Inc., priority 2010, dated 2014).

Where a name gives a salt, the structure may show the parent alone.

The target in assay [1] is T1, Human PI3Kα (Homo sapiens, UniProt P42336).
T1 construct: purchased Millipore Corporation 14-602
Briefly: PI3Kα enzyme inhibitory activity (Kinase-Glo Plus luminescence). The assay is classed as biochemical. The following applies: human PI3Kα 12 ng/well, phosphatidylinositol 0.2 μg/well, 37° C. 3 hours. As for the experimental part:
2. PI3Kα Enzyme Inhibitory Activity
Human PI3Kα (12 ng/well, Millipore Corporation, Catalogue No. 14-602), phosphatidylinositol (0.2 μg/well), and the test compound were mixed in a 384-well plate in a reaction buffer (50 mM Hepes, 10 mM NaCl, 10 mM MgCl2, 2 mM EGTA, 2 mM DTT, pH 7.3) (total 10 μl), and incubated at 37° C. for 3 hours. After the reaction, 10 μL of a Kinase-Glo Plus reagent (Promega, Catalogue No. V3772) was added thereto, and a luminescence was measured with a luminometer.

Assay [2] addresses T2, human PI3Kδ enzyme (Homo sapiens, UniProt O00329).
T2 construct: purchased Millipore Corporation 14-604
Briefly: PI3Kδ enzyme inhibitory activity (PI3-Kinase HTRF Assay kit). The conditions noted are these: human PI3Kδ 10 ng/well, ATP 30 μM, PIP2 10 μM, room temperature 30 minutes. In kind it is biochemical. The method, then:
1. PI3Kδ Enzyme Inhibitory Activity
For the experiment, a PI3-Kinase HTRF Assay kit (Millipore Corporation, Catalogue No. 33-016) and a human PI3Kδ enzyme (Millipore Corporation, Catalogue No. 14-604) were used. The measurement method was in accordance with the appended instructions. The overview thereof is as follows.
PI3Kδ (10 ng/well), phosphatidylinositol-4,5-bisphosphate (10 μM), ATP (30 μM), and the test compound were mixed in a 384-well plate (total 20 μL), and incubated at room temperature for 30 minutes. EDTA and biotinylated phosphatidylinositol-3,4,5-triphosphate were added thereto to stop the reaction. Thereafter, a Europium labeled anti-GST antibody, a GST bond GRP1 PH domain, and streptavidin-APC were added thereto, followed by incubation overnight. An HTRF ratio was measured using an HTRF plate reader.

Assay [3] deals with Spleen cells prepared from male LEW/CrlCrlj rats (B cell proliferation). Briefly: Rat B cell proliferation inhibition test (anti-rat IgM, [3H]thymidine). In kind it is cell-based. The following applies: anti-rat IgM 3 μg/well, 48 hours culture. The method, then: 4. Rat B Cell Proliferation Inhibition Test
Spleen cells (1.0×10^5 cells/well) prepared from male LEW/CrlCrlj rats (Charles River Laboratories, Japan, Inc.), mouse F(ab′)2 fragment anti-rat IgM (3 μg/well, SouthernBiotech Associates, Inc., Catalogue No. 3082-14) and the test compound dissolved in DMSO (final DMSO concentration 0.1%) were mixed in a 96-well plate using a 10% FCS-containing RPMI-1640 culture medium (total 200 μL). They were cultured in a CO2 incubator for 48 hours and [^3H]thymidine (925 GBq/mmol, Moravek Biochemicals, Inc., Catalogue No. MT6038) was added thereto at 0.037 MBq/well at 4 hours before completion of culture. Cells were harvested in a GF/C glass filter using a cell harvester, and a radioactivity on the filter was measured using a liquid scintillation counter.

T2 sequence (O00329 whole entry): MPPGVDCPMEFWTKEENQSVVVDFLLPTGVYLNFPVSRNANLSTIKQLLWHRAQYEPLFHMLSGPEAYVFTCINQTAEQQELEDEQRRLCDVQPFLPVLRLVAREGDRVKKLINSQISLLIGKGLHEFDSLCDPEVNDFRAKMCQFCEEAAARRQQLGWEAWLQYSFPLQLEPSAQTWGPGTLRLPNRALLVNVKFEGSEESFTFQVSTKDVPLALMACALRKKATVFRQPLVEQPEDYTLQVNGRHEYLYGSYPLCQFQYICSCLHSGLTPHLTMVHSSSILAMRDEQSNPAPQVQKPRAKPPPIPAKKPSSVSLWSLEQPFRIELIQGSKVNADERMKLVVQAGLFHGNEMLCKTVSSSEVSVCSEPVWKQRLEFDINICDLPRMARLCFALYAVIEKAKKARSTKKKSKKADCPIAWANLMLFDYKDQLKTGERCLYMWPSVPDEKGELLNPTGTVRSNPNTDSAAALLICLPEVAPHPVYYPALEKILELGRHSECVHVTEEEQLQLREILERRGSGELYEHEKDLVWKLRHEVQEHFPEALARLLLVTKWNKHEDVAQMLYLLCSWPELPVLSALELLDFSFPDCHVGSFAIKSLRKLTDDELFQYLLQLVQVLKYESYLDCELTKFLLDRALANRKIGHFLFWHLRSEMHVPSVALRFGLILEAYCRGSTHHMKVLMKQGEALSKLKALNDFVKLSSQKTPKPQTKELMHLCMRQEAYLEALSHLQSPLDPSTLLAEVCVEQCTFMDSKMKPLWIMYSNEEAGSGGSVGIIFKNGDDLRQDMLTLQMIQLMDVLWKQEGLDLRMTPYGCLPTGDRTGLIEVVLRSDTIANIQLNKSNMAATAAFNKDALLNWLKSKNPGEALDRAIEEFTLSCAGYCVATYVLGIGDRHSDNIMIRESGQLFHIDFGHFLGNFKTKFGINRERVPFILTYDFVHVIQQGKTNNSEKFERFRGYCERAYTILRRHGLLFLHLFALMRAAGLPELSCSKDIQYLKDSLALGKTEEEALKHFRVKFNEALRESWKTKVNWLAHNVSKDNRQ
T2 sequence (P27986 whole entry partner): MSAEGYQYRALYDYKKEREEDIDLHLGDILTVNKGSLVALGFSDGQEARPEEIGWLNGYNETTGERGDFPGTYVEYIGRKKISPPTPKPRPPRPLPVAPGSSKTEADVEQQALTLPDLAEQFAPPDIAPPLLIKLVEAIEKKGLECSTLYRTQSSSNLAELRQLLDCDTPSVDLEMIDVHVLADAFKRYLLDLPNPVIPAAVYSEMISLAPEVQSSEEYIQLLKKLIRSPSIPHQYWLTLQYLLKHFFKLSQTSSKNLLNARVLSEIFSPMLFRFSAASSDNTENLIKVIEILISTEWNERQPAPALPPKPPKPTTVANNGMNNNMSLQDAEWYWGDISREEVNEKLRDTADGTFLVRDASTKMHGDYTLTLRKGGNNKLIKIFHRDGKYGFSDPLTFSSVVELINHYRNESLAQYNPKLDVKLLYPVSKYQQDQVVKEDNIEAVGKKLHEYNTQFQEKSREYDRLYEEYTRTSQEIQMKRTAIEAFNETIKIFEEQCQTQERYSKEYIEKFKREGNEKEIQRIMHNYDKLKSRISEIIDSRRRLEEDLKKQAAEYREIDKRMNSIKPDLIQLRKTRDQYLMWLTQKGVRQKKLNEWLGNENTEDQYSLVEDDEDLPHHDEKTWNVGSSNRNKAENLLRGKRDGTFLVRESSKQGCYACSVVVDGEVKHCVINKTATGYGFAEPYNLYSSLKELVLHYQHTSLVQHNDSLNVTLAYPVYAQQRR
T1 sequence (P42336 whole entry): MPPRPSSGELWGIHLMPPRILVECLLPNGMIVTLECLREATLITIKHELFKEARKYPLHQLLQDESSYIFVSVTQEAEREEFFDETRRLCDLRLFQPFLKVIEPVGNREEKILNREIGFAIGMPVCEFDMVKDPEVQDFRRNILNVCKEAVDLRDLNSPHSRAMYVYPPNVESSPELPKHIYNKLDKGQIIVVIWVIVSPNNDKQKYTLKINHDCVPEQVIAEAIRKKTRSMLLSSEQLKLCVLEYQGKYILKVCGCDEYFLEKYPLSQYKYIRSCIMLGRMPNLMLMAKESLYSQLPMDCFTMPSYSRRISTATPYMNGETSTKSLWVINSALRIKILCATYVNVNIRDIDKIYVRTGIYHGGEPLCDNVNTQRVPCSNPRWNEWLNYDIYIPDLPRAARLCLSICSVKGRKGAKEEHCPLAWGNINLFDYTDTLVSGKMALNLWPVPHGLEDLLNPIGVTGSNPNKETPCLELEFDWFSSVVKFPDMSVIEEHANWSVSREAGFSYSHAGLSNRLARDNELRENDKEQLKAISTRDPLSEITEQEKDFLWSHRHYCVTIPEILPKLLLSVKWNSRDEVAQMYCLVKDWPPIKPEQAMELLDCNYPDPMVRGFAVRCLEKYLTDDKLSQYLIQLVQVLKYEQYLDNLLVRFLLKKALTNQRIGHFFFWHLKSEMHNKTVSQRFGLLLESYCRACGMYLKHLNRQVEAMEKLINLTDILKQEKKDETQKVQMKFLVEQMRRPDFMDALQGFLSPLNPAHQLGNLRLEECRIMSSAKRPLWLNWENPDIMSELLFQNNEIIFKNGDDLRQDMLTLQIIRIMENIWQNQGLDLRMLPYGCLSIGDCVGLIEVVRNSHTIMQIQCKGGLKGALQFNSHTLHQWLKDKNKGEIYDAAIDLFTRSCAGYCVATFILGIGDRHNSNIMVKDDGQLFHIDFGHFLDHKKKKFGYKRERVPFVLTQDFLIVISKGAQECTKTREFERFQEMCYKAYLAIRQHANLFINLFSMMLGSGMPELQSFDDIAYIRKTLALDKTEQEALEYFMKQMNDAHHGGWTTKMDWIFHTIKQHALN
T1 sequence (P27986 whole entry partner): as the sequence (P27986 whole entry partner) above

In general, IC50 refers to the midpoint of a concentration-inhibition curve. Consider `COC(=O)N[C@H]1CCN([C@H]2CC[C@H](Nc3nc(N4CCOCC4)cc(-n4c(C(F)F)nc5ccccc54)n3)CC2)C1=O` [Example 248, methyl{(3S)-1-[trans-4-({4-[2-(difluoromethyl)-1H-benzimidazol-1-yl]-6-(morpholin-4-yl)pyrimidin-2-yl}amino)cyclohexyl]-2-oxopyrrolidin-3-yl}carbamate], for which the figures for the IC50 in assay [1], in assay [2] and in assay [3] were 720 nM, 34 nM and 1.4 nM, respectively.
For `FC(F)c1nc2ccccc2n1-c1cc(OCC2CCN(C3CCOCC3)CC2)nc(N2CCOCC2)n1` [Example 40], the IC50 is over 10000 nM in assay [1], 20 nM in assay [2] and 9 nM in assay [3].
On to `O=C(C1CCOC1)N1CC[C@H](Oc2cc(-n3c(C(F)F)nc4ccccc43)nc(N3CCOCC3)n2)C1` (stereo partly drawn) [A449], for which the IC50 in assay [1] amounted to 1400 nM; in assay [2], 20 nM; in assay [3] it was 0.4 nM.
The like results for `Cc1ccc2nc(C(F)F)n(-c3cc(N4CCOCC4)nc(NC[C@H]4CC[C@H](N5CCOCC5)CC4)n3)c2c1` [Example 132] were, in that order, over 10000 nM, 12 nM and 1.5 nM.
Regarding `COC(=O)N[C@@H]1CCN([C@H]2CC[C@H](Nc3nc(N4CCOCC4)cc(-n4c(C(F)F)nc5ccccc54)n3)CC2)C1=O` [Example 441], the values for the IC50 in assay [1], in assay [2] and in assay [3] were 1400 nM, 48 nM and 1.8 nM, respectively.
In the case of `C[C@H]1COCCN1c1cc(-n2c(C(F)F)nc3ccccc32)nc(NCC2CCN(C3CCOCC3)CC2)n1` [Example 38], the IC50 in assay [1] stood at 2200 nM; in assay [2] it was 23 nM; in assay [3], 2.9 nM.
The corresponding values for `CC(C)(O)CNC12CCC(CNc3nc(N4CCOCC4)cc(-n4c(C(F)F)nc5ccccc54)n3)(CC1)CC2` [Example 85, 1-({4-[({4-[2-(difluoromethyl)-1H-benzimidazol-1-yl]-6-(morpholin-4-yl)pyrimidin-2-yl}amino)methyl]bicyclo[2.2.2]oct-1-yl}amino)-2-methylpropan-2-ol] are 5500 nM, 21 nM and 2.6 nM.
With `CC1(NCC(=O)N[C@H]2CC[C@H](Oc3cc(-n4c(C(F)F)nc5ccccc54)nc(N4CCOCC4)n3)CC2)CC1` [Example 137], the IC50 in assay [1] is over 10000 nM; in assay [2] it was 5.2 nM; in assay [3], 4.6 nM.
The corresponding values for `FC(F)c1nc2ccccc2n1-c1cc(N[C@H]2C[C@@H]3C[C@H](N4CCOCC4)C[C@@H]3C2)nc(N2CCOCC2)n1` [Example 195] are over 10000 nM, 4.1 nM and 3 nM.
As for `O=C(CNC1CCOCC1)N[C@H]1CC[C@H](Oc2cc(-n3c(C(F)F)nc4ccccc43)nc(N3CCOCC3)n2)CC1` [Example 136], the IC50 in assay [1] was over 10000 nM; in assay [2] it was 4 nM; in assay [3], 1.7 nM.
The corresponding values for `O=C1CC[C@@H](C(=O)N2CC(Nc3cc(-n4c(C(F)F)nc5ccccc54)nc(N4CCOCC4)n3)C2)N1` [A562] are 2900 nM, 14 nM and 3.9 nM.
With `CN(CC(C)(C)O)C12CCC(CNc3nc(N4CCOCC4)cc(-n4c(C(F)F)nc5ccccc54)n3)(CC1)CC2` [Example 121], the IC50 in assay [1] was 4900 nM; in assay [2], 13 nM; in assay [3] it was 2 nM.
The corresponding values for `COC(=O)N[C@H]1CCN([C@H]2CC[C@H](Oc3cc(-n4c(C(F)F)nc5ccccc54)nc(N4CCOCC4)n3)CC2)C1=O` [Example 87, methyl{(3S)-1-[trans-4-({6-[2-(difluoromethyl)-1H-benzimidazol-1-yl]-2-(morpholin-4-yl)pyrimidin-4-yl}oxy)cyclohexyl]-2-oxopyrrolidin-3-yl}carbamate] are over 10000 nM, 4.9 nM and 3.5 nM.
Take `COC(=O)N[C@@H]1CCN([C@H]2CC[C@H](Oc3cc(-n4c(C(F)F)nc5ccccc54)nc(N4CCOCC4)n3)CC2)C1=O` [Example 389]: the IC50 in assay [1] is over 10000 nM; in assay [2], 11 nM; in assay [3], 4.4 nM.
On to `FC(F)c1nc2ccccc2n1-c1cc(N2CCOCC2)nc(NCC2CCN(C3CCCCC3)CC2)n1` [Example 193], for which the IC50 in assay [1] stood at 8200 nM; in assay [2], 4.9 nM; in assay [3], 4.1 nM.
For `CN1CC(C(=O)N2CC[C@H](Nc3cc(-n4c(C(F)F)nc5ccccc54)nc(N4CCOCC4)n3)C2)CC1=O` (stereo partly drawn) [A466], the IC50 in assay [1] is 2000 nM; in assay [2], 15 nM; in assay [3], 1.8 nM.
The corresponding values for `CN1CC(C(=O)N2CC[C@H](Oc3cc(-n4c(C(F)F)nc5ccccc54)nc(N4CCOCC4)n3)C2)CC1=O` (stereo partly drawn) [A451] are 2200 nM, 35 nM and 1.2 nM.
The like results for `FC(F)c1nc2ccccc2n1-c1cc(N2CCOCC2)nc(NCC2CCN(C3CCC(F)(F)CC3)CC2)n1` [Example 36] were, in that order, 6700 nM, 17 nM and 6.8 nM.
The like results for `NC1(C(=O)N[C@H]2CC[C@H](Oc3cc(-n4c(C(F)F)nc5ccccc54)nc(N4CCOCC4)n3)CC2)CCCC1` [Example 216] were, in that order, over 10000 nM, 13 nM and 5.7 nM.
Turning to `C[C@@H]1C[C@@H](N2CCC(CNc3nc(N4CCOCC4)cc(-n4c(C(F)F)nc5ccccc54)n3)CC2)C[C@H](C)O1` [Example 224], the IC50 in assay [1] came out at 7300 nM; in assay [2] it was 3.3 nM; in assay [3] it was 1.5 nM.
The like results for `O=C(C1CCOCC1)N1CC[C@H](Nc2cc(-n3c(C(F)F)nc4ccccc43)nc(N3CCOCC3)n2)C1` [A293] were, in that order, 3200 nM, 19 nM and 2.6 nM.
For the compound `NC1(C(=O)N[C@H]2CC[C@H](Oc3cc(-n4c(C(F)F)nc5ccccc54)nc(N4CCOCC4)n3)CC2)CCC1` [Example 215], the values for the IC50 in assay [1], in assay [2] and in assay [3] were over 10000 nM, 13 nM and 6.7 nM, respectively.
`FC(F)c1nc2ccccc2n1-c1cc(N2CCOCC2)nc(NCC2CCN([C@H]3CC[C@@H](F)CC3)CC2)n1` [Example 43-2, 4-[2-(difluoromethyl)-1H-benzimidazol-1-yl]-N-{[1-(cis-4-fluorocyclohexyl)piperidin-4-yl]methyl}-6-(morpholin-4-yl)pyrimidin-2-amine dihydrochloride]: the figures for the IC50 in assay [1], in assay [2] and in assay [3] were 8000 nM, 8.6 nM and 3.1 nM, respectively.
With `CC(=O)N[C@H]1CCN([C@H]2CC[C@H](Oc3cc(-n4c(C(F)F)nc5ccccc54)nc(N4CCOCC4)n3)CC2)C1=O` [Example 99], the IC50 in assay [1] is over 10000 nM; in assay [2] it was 16 nM; in assay [3] it was 2.5 nM.
The corresponding values for `O=C([C@H]1CCCO1)N1CC[C@H](Nc2cc(-n3c(C(F)F)nc4ccccc43)nc(N3CCOCC3)n2)C1` [A290] are 3800 nM, 7.4 nM and 2.2 nM.
The corresponding values for `O=C(CC1CCOCC1)N1CC[C@H](Nc2cc(-n3c(C(F)F)nc4ccccc43)nc(N3CCOCC3)n2)C1` [A300] are 6500 nM, 26 nM and 2.6 nM.
